Where two headings read alike, the source gives them in different places.
Target: T1, HDAC2 Human recombinant C-terminal FLAG-tag (Homo sapiens, UniProt Q92769)
T1 construct: FLAG (C); purchased BPS Bioscience 50052
Assay: Measurement of HDAC2 enzyme inhibitory activity (HTRF)
Type: biochemical
Settings: recombinant HDAC2, H3K9ac peptide
Description: Test Example 1: Measurement of HDAC2 Enzyme Inhibitory Activity
The HDAC2 enzyme inhibitory activity was measured by the method described in the following test example.
To each well of a 384-well plate (Corning, 4514), DMSO solution of the test compound was dispensed at 50 nL/well from a final concentration of 99 μM to 8 points (n=2) in the 3-fold dilution series using Echo555 (Beckman Coulter). 2.5 μl of 0.005 mg/mL recombinant enzyme HDAC2 (HDAC2 Human recombinant C-terminal FLAG-tag, BPS Bioscience, 50052) was added to each well, 2.5 μl of 0.6 μM H3K9ac peptide (Lys(Ac)9-Histone H3 (1-21)-GGK(Biotin), AnaSpec, 64361) was added, mixed, and reacted in a wet box at room temperature for 3 hours. 50 mM Tris HCL pH8.0, 137 mM sodium chloride, 2.7 mM potassium chloride, 1 mM magnesium chloride, 0.01% Tween20, and 0.1% BSA which were diluted with ultrapure water were used as a reaction buffer at this time. After the reaction, 5 μL of 10 μM SAHA (suberoylanilide hydroxamic acid) as a reaction terminator and the 5 μL of a mixture of 2.5 ng of H3K9me0 antibody (ActiveMotif, 61399) labeled in-house with europium cryptate (Cisbio, 65EUSABA) and 125 nM streptavidin-XL665 (Cisbio, 610SAXLA) as an HTRF (time-resolved fluorescence) reagent were added to each well, mixed, and allowed to stand in a wet box at room temperature for reaction. A detection buffer used at this time was 50 mM Tris HCL pH 8.0, 0.8 M potassium fluoride, and 0.1% BSA which were diluted with ultrapure water. After reacting for 2 hours or more, HTRF was measured using a multi-plate reader such as SpectraMax Paradigm (MOLECULAR DEVICE) or RUBYstar (BMG LABTECH). Ratio (665 nm/615-620 nm×10000) was calculated from the fluorescence values of two wavelengths, 615-620 nm and 665 nm, which were excited at 320-340 nm, and the energy transition was obtained.

[1] = 3 hours room temperature, read-out: HDAC2 IC50

T1 sequence (Q92769 whole entry): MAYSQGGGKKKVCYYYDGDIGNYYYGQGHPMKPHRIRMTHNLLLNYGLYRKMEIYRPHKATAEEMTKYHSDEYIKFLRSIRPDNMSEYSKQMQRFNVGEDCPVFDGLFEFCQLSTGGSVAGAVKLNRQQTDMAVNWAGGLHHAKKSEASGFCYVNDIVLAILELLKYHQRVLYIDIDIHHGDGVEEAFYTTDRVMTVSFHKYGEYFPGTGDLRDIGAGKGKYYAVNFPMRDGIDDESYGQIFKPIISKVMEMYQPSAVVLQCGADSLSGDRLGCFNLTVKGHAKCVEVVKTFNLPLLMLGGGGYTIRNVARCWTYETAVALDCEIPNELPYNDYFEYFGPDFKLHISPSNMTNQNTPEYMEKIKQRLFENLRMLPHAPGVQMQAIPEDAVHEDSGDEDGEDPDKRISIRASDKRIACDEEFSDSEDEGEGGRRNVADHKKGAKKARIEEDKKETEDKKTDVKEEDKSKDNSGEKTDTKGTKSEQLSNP

| IC50 [1] | IC50 (read-out: IC50 (HDAC2)) | SMILES |
| --- | --- | --- |
| 230 nM | – | CC(=O)Nc1ccc(C(=O)Nc2nc(-c3ccccc3)ccc2N)nc1 [Compound I-281] |
| 240 nM | – | CN(C)c1ccc(C(=O)Nc2cc(-c3cnn(C)c3)ccc2N)nn1 [Compound I-274] |
| 140 nM | – | Nc1ccc(-c2ccc(F)nc2)cc1NC(=O)c1ccc(N2CCC2)nn1 [Compound I-266] |
| – | 48 nM | CCC(=O)Nc1ccc(C(=O)Nc2cc(-c3ccc(F)nc3)ccc2N)nc1 [Compound I-306] |
| 110 nM | – | Cn1cc(-c2ccc(N)c(NC(=O)c3cnc(NC4CCOCC4)cn3)c2)cn1 [Compound I-290] |
| – | 92 nM | CC(=O)Nc1cnc(C(=O)Nc2cc(-c3ccc(F)nc3)ccc2N)cn1 [Compound I-310] |
| 340 nM | – | COc1cnc(C(=O)Nc2cc(-c3ccc(F)nc3)ccc2N)nc1 [Compound I-259] |
| 470 nM | – | CCc1cnc(C(=O)Nc2nc(-c3ccccc3)ccc2N)cn1 [Compound I-260] |
| 70 nM | – | CCc1cnc(C(=O)Nc2cc(-c3ccc(F)nc3)ccc2N)cn1 [Compound I-249] |
| – | 280 nM | CCC(=O)Nc1ccc(C(=O)Nc2nc(-c3ccccc3)ccc2N)nc1 [Compound I-308] |
| 340 nM | – | CC(C)Oc1ccc(C(=O)Nc2cc(-c3cnn(C)c3)ccc2N)nn1 [Compound I-293] |
| 40 nM | – | CN(Cc1ccccn1)c1cnc(C(=O)Nc2cc(-c3ccc(F)nc3)ccc2N)cn1 [Compound I-276] |
| 150 nM | – | COc1ccc(C(=O)Nc2cc(-c3ccc(F)nc3)ccc2N)nn1 [Compound I-253] |
| – | 45 nM | Nc1ccc(-c2cccnc2)cc1NC(=O)c1cnc(N2CCOCC2)cn1 [Compound I-312] |
| 70 nM | – | Nc1ccc(-c2ccc(F)nc2)cc1NC(=O)c1cnc(N2CC3(COC3)C2)cn1 [Compound I-245] |
| 40 nM | – | Nc1ccc(-c2ccc(F)nc2)cc1NC(=O)c1cnc(NCc2ccccn2)cn1 [Compound I-277] |
| 130 nM | – | Nc1ccc(-n2ccc(F)c2)cc1NC(=O)c1cnc(N2CCCOCC2)cn1 [Compound I-298] |
| 170 nM | – | Cn1cc(-c2ccc(N)c(NC(=O)c3cnc(NCC(F)(F)F)cn3)c2)cn1 [Compound I-292] |
| 230 nM | – | Nc1ccc(-c2ccc(F)nc2)cc1NC(=O)c1cnc(NCC(F)(F)F)cn1 [Compound I-288] |
| 80 nM | – | CN(Cc1ccccn1)c1cnc(C(=O)Nc2cc(-c3cnn(C)c3)ccc2N)cn1 [Compound I-295] |
| 120 nM | – | CN(C)c1ccc(C(=O)Nc2cc(-c3ccc(F)nc3)ccc2N)nn1 [Compound I-263] |
| 110 nM | – | CC(C)c1cnc(C(=O)Nc2cc(-c3ccc(F)nc3)ccc2N)cn1 [Compound I-251] |
| 280 nM | – | Nc1ccc(-c2ccccc2)nc1NC(=O)c1ccc2c(n1)OCC(=O)N2 [Compound I-233] |

Further lines, the molecule ahead of its results:

| SMILES | IC50 [1] | IC50 (read-out: IC50 (HDAC2)) |
| --- | --- | --- |
| COc1cnc(C(=O)Nc2cc(-c3cncs3)ccc2N)cn1 [Compound I-099] | 72 nM | – |
| Cn1cc(-c2ccc(C(=O)Nc3cc(-n4cccc4)ccc3N)nc2)cn1 [Compound I-056] | 120 nM | – |
| COc1ccc(C(=O)Nc2cc(-c3cnn(C)c3)ccc2N)nc1 [Compound I-140] | 220 nM | – |
| Nc1ccc(-c2cncs2)cc1NC(=O)c1ccc(C2CC2)cn1 [Compound I-101] | 92 nM | – |
| Nc1ccc(-c2cncs2)cc1NC(=O)c1cnc2[nH]ccc2n1 [Compound I-064] | 96 nM | – |
| Cn1cc(-c2cnc(C(=O)Nc3cc(-c4cncs4)ccc3N)cn2)cn1 [Compound I-010] | 31 nM | – |
| Cn1cc(-c2cnc(C(=O)Nc3nc(-c4cccs4)ccc3N)c(F)c2)cn1 [Compound I-022] | 470 nM | – |
| N#Cc1ccc(C(=O)Nc2cc(-c3cncs3)ccc2N)nc1 [Compound I-069] | 160 nM | – |
| Cn1cc(-c2ccc(C(=O)Nc3cc(-c4ccco4)ccc3N)nc2)nn1 [Compound I-002] | 54 nM | – |
| Nc1ccc(-c2ccc(F)nc2)cc1NC(=O)c1ccc(F)cn1 [Compound I-089] | 400 nM | – |
| Nc1ccc(-c2ccc(F)nc2)cc1NC(=O)c1ccc2c(n1)OCC(=O)N2 [Compound I-184] | 49 nM | – |
| Cn1cc(-c2ccc(C(=O)Nc3cc(-c4cccs4)ccc3N)nc2)nn1 [Compound I-001] | 56 nM | – |
| CN(C)c1cnc(C(=O)Nc2cc(-c3cnco3)ccc2N)cn1 [Compound I-202] | 60 nM | – |
| CC(C)(C)c1ccc(C(=O)Nc2cc(-c3ccc(F)nc3)ccc2N)nc1 [Compound I-191] | 240 nM | – |
| Nc1ccc(-c2ccc(F)nc2)cc1NC(=O)c1ccc(Cl)cn1 [Compound I-090] | 290 nM | – |
| Cn1cc(-c2cnc(C(=O)Nc3nc(-c4ccc(F)nc4)ccc3N)cn2)cn1 [Compound I-079] | 480 nM | – |
| Cn1cc(-c2ccc(N)c(NC(=O)c3cc(-c4cnn(C)c4)on3)c2)cn1 [Compound I-197] | 240 nM | – |
| CC(C)(C)c1cnc(C(=O)Nc2cc(-c3ccc(F)nc3)ccc2N)cn1 [Compound I-203] | 240 nM | – |
| Cn1cc(-c2ccc(N)c(NC(=O)c3ccc4c(n3)OCO4)c2)cn1 [Compound I-216] | 100 nM | – |
| CC(C)Oc1ccc(C(=O)Nc2cc(-c3cnn(C)c3)ccc2N)nc1 [Compound I-163] | 210 nM | – |
| Nc1ccc(-c2ccc(F)nc2)cc1NC(=O)c1cc2c(cn1)OCCO2 [Compound I-097] | 160 nM | – |
| Cc1ccc(C(=O)Nc2cc(-c3ccc(F)nc3)ccc2N)nc1 [Compound I-154] | 120 nM | – |
| CC(C)Oc1ccc(C(=O)Nc2cc(-c3ccc(F)nc3)ccc2N)nc1 [Compound I-162] | 200 nM | – |
| Nc1ccc(-c2ccc(F)nc2)cc1NC(=O)c1ccc(CN2CCCC2=O)cn1 [Compound I-104] | 85 nM | – |
| Cn1cc(-c2ccc(C(=O)Nc3cc(-c4ccco4)ccc3N)nc2)cn1 [Compound I-005] | 220 nM | – |
| COCc1cnc(C(=O)Nc2cc(-c3cnn(C)c3)ccc2N)cn1 [Compound I-219] | 310 nM | – |

| SMILES | IC50 [1] | IC50 (read-out: IC50 (HDAC2)) |
| --- | --- | --- |
| COCCOc1cnc(C(=O)Nc2cc(-c3cnn(C)c3)ccc2N)cn1 [Compound I-230] | 250 nM | – |
| COCCOc1ccc(C(=O)Nc2nc(-n3cccc3)ccc2N)nc1 [Compound I-182] | 350 nM | – |
| Nc1ccc(-c2ccc(F)nc2)cc1NC(=O)c1ccc(CN2CCCCC2=O)cn1 [Compound I-108] | 84 nM | – |
| Cn1cc(-c2ccc(N)c(NC(=O)c3cnc(CF)cn3)c2)cn1 [Compound I-147] | 290 nM | – |
| COCc1cnc(C(=O)Nc2cc(-c3ccc(F)nc3)ccc2N)cn1 [Compound I-218] | 150 nM | – |
| COc1ccnc(C(=O)Nc2cc(-c3ccc(F)nc3)ccc2N)c1 [Compound I-150] | 310 nM | – |
| Cn1cc(-c2ccc(C(=O)Nc3cc(-c4cnco4)ccc3N)nc2)nn1 [Compound I-011] | 57 nM | – |
| Nc1ccc(-c2ccc(F)nc2)cc1NC(=O)c1ccc(OCC(F)(F)F)cn1 [Compound I-135] | 470 nM | – |
| Nc1ccc(-c2ccc(F)nc2)cc1NC(=O)c1cnc(CF)cn1 [Compound I-134] | 210 nM | – |
| Cn1cc(-c2cnc(C(=O)Nc3cc(-c4cccs4)ccc3N)nc2)cn1 [Compound I-014] | 200 nM | – |
| Cn1cc(-c2ccc(N)c(NC(=O)c3cnc(C(C)(C)C)cn3)c2)cn1 [Compound I-204] | 340 nM | – |
| Cn1cc(-c2ccc(C(=O)Nc3cc(-c4cnco4)ccc3N)nc2)cn1 [Compound I-004] | 64 nM | – |
| Nc1ccc(-c2ccc(F)nc2)cc1NC(=O)c1ccc(CO)cn1 [Compound I-192] | 220 nM | – |
| Nc1ccc(-c2cncs2)cc1NC(=O)c1cc2c(cn1)OC(F)(F)CO2 [Compound I-070] | 240 nM | – |
| CC#Cc1ccc(C(=O)Nc2cc(-c3cncs3)ccc2N)nc1 [Compound I-094] | 230 nM | – |
| Cn1cc(-c2ccc(C(=O)Nc3cc(-c4ccc(F)nc4)ccc3N)nc2)cn1 [Compound I-033] | 88 nM | – |
| Nc1ccc(-c2ccc(F)nc2)cc1NC(=O)c1cnc(C(F)F)cn1 [Compound I-145] | 340 nM | – |
| CN(C)c1cnc(C(=O)Nc2nc(-c3cnn(C)c3)ccc2N)cn1 [Compound I-228] | 630 nM | – |
| Nc1ccc(-c2ccc(F)nc2)cc1NC(=O)c1ccc(C2CC2)cn1 [Compound I-111] | 150 nM | – |
| Nc1ccc(-c2cncs2)cc1NC(=O)c1ccc(Cl)cn1 [Compound I-071] | 160 nM | – |
| COCCOc1cnc(C(=O)Nc2cc(-c3ccc(F)nc3)ccc2N)cn1 [Compound I-229] | 130 nM | – |
| Nc1ccc(-n2cccc2)nc1NC(=O)c1ccc(N2CCOCC2)cn1 [Compound I-206] | 500 nM | – |
| Nc1ccc(-c2ccc(F)nc2)cc1NC(=O)c1ccc(OC(F)F)cn1 [Compound I-143] | 390 nM | – |
| Cn1cc(-c2ccc(C(=O)Nc3cc(-c4cccs4)ccc3N)nn2)cn1 [Compound I-027] | 130 nM | – |
| N#Cc1ccnc(C(=O)Nc2cc(-c3cncs3)ccc2N)c1 [Compound I-109] | 190 nM | – |
